Test results: PMC3555145 (Biomacromolecules, 2012)

Tested on: Raw 264.7 and HeLa cells
Details: rhodamine-labeled polypeptide, n = 3

poly(ethylene glycol)-block-poly(O-pentenyl-L-serine-graft-cysteamine) [PEG112-b-(PPELS70-g-CA)]
time of maximal cell uptake level post polypeptide treatment (2 μg/well): 2 h | dependence of cell uptake level on incubation time and feeding amount (0.5-5 μg/well for 2 h, 2 μg/well for 0.4-4 h): increased with incubation time and the feeding amount
